Experimental data taken from US11124523B2, “2,6-dioxaspiro [4,5] decane derivatives and preparation method therefor and pharmaceutical applications thereof” (SHANDONG LUYE PHARMACEUTICAL CO., LTD., priority 2017, dated 2021).
Counter-ions that a name gives are not always drawn. Like-named read-outs stand apart in the source and are kept apart here.

How the values were obtained:
CYP2C19 = CYP2C19 (Homo sapiens (Human), UniProt P33261); test: Inhibition of cytochrome P450 isoenzymes, CYP2C19; format: in vitro ADME; conditions: >50 μM: inhibitory effect less than 50% at 50 μM; read-out: CYP 2C19 IC50
Protocol: (§1) 4.1 Experimental Purpose: To test the inhibitory effects of the compounds of the present disclosure on different isoforms of human cytochrome P450 isoenzymes
(§2) 1) The activities of CYP1A2, 2C9, 2C19, 2D6, and 3A4 were measured using a standard substrate method. In each reaction, the enzyme activities were measured in the presence and absence of the substance to be tested, wherein a single sample was measured at a total of eight test concentrations. A 5-in-1 mixed inhibitor was used.
(§3) 2) An incubation matrix comprising microsomes, a substrate, and an inhibitor or the compound to be tested was pre-incubated at 37° C. for 5 minutes, and then NADPH was added to start the reaction.
(§4) 3) After the incubation, acetonitrile with an internal standard was added to stop the reaction.
(§5) 4) Metabolites generated by the substrates were measured by using the LC-MS/MS method, and the peak area ratio of each metabolite to the internal standard was evaluated and the inhibition rate and IC50 were calculated.

[1] = biological target: human μ-subtype opioid receptor (hMOR) (Homo sapiens (Human), UniProt P35372); test: MOR cAMP agonist activity test; format: cell-based; conditions: for Emax: maximum effect of enkephalin DAMGO was 100%
Protocol: Test 1: MOR cAMP Agonist Activity Test
1.1 Experimental Purpose: To test the cAMP agonist activity of the compounds of the present disclosure on the human μ-subtype opioid receptor (hMOR).
a. Compound samples were dissolved in DMSO to a storage concentration of 10 mM.
b. A series of diluted samples were formulated on a 384-well LDV plate. A total of 11 concentration points were obtained by 3.162-fold gradient dilution.
c. The series of diluted samples were transferred to an experimental plate (Corning-3824) by using an Echo machine, wherein 30 nL was transferred corresponding to each well.
The experiment was performed using a cAMP detection kit from Cisbio (Cisbio #62AM4PEJ).
a. Assay buffer and stimulation buffer (STB) required for the experiment were formulated.
Stimulation Buffer: formulated with the assay buffer, containing 5 μM NKH477 (CAS: 138605-00-2) and 200 μM IBMX (3-isobutyl-1-methylxanthine)
b. […] The number of cells in the well was 10,000 cells/well.
c. The experimental plate was placed in a 37° C. constant-temperature incubator for incubation. The incubation was performed for 40 minutes.
d. A cAMP standard concentration curve was prepared. The first concentration point was at 2848 nM, and a total of sixteen detection concentrations were obtained by 4-fold gradient dilution. There were three replicates for each concentration point.
e. The cAMP detection kit from Cisbio was provided therein with a d2-labeled cAMP reagent (d2 reagent) and an Eu-labeled cAMP antibody reagent (Crypate reagent). The above two reagents were formulated according to the kit instructions, and then added to the sample experimental plate and to the cAMP standard concentration experimental plate, respectively. It was necessary to add 5 μL of the d2 reagent and then 5 μL of the Cryptate reagent to each well.
f. After the experimental plates were left at room temperature for 60 minutes, the experimental plates were read on the Envision.

hERG potassium channels = hERG potassium channels (Homo sapiens (Human), UniProt Q12809); test: Effects on hERG potassium channels (Qpatch, CHO-hERG cells); format: cell-based; conditions: highest test concentration 40 μM, read-out: IC50 representing the blocking effects of hERG potassium currents
Protocol: 5.1 Experimental Purpose: To test the blocking effects of the compounds of the present disclosure on hERG potassium currents.
a. CHO-hERG cells were cultured in a 175 cm^2 culture flask. When the cells were grown to a density of 60 to 80%, the culture solution was removed, and the cells were washed once with 7 mL of PBS (phosphate buffer solution), and then 3 mL of a cell digestion solution (Detachin) was added for digestion of the cells.
b. After completely digested, the cells were neutralized by adding 7 mL of the culture solution and then centrifuged, the supernatant was removed, and then 5 mL of the culture solution was added for resuspension to ensure a cell density of 2 to 5×10^6 cells/mL.
The single-cell high-impedance sealing and whole-cell pattern formation processes were both carried out automatically by the Qpatch instrument. After the whole-cell recording pattern was obtained, the cells were clamped at −80 millivolts. A preceding voltage of −50 millivolts was applied for 50 milliseconds prior to application of a depolarizing stimulus of +40 millivolts for 5 seconds, and then the cells were repolarized to −50 millivolts and maintained for 5 seconds and then returned back to −80 millivolts. This voltage stimulation was applied every 15 seconds, and data were recorded for 2 minutes, and thereafter the extracellular fluid was administered and data were recorded for 5 minutes, and then the administration process was started. The compound was administered for 2.5 minutes at each test concentration from the lowest test concentration. After all the concentrations of the compound were administered, […] of Cisapride was administered as a positive comparative compound. At least three cells (n>3) were tested for each concentration.
a. A 20 mM compound mother solution was diluted with the extracellular fluid, wherein 5 μL of the 20 mM compound mother solution was taken and diluted 500 times to 40 μM by adding 2495 μL of the extracellular fluid thereto, and then 3-fold serial dilutions were performed sequentially in the extracellular fluid containing 0.2% DMSO to obtain a final concentration to be tested.
b. The highest test concentration was 40 μM, and there were six concentrations in total, i.e., 40, 13.33, 4.44, 1.48, 0.49, and 0.16 μM, respectively.
c. The DMSO content in the final test concentration was not more than 0.2%. This concentration of DMSO had no effect on the hERG potassium channel.
The experimental data were analyzed by XLFit software.

CYP2D6 = CYP2D6 (Homo sapiens (Human), UniProt P10635); test: Inhibition of cytochrome P450 isoenzymes, CYP2D6; format: in vitro ADME
Protocol: as §1, §2, §3, §4, §5

CYP3A4 = CYP3A4 (Homo sapiens (Human), UniProt P08684); test: Inhibition of cytochrome P450 isoenzymes, CYP3A4; format: in vitro ADME; conditions: >50 μM: inhibitory effect less than 50% at 50 μM; read-out: CYP 3A4 IC50
Protocol: as §1, §2, §3, §4, §5

CYP2C9 = CYP2C9 (Homo sapiens (Human), UniProt P11712); test: Inhibition of cytochrome P450 isoenzymes, CYP2C9; format: in vitro ADME; conditions: >50 μM: inhibitory effect less than 50% at 50 μM; read-out: CYP 2C9 IC50
Protocol: as §1, §2, §3, §4, §5

CYP2C19, sequence (P33261 whole entry, canonical isoform): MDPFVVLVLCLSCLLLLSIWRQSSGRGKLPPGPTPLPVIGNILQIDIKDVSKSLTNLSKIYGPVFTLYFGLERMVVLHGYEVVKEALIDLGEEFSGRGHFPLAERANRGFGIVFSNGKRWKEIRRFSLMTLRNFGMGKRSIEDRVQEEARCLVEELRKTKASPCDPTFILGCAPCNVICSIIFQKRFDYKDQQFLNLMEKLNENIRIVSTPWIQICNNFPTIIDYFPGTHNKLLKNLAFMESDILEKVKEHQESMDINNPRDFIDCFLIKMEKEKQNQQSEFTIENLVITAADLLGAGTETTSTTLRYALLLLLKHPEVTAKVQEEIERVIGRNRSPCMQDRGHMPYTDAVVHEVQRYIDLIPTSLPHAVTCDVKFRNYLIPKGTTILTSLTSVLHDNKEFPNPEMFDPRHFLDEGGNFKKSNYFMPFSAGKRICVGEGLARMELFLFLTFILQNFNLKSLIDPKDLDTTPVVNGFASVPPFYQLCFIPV
CYP3A4, sequence (P08684 whole entry): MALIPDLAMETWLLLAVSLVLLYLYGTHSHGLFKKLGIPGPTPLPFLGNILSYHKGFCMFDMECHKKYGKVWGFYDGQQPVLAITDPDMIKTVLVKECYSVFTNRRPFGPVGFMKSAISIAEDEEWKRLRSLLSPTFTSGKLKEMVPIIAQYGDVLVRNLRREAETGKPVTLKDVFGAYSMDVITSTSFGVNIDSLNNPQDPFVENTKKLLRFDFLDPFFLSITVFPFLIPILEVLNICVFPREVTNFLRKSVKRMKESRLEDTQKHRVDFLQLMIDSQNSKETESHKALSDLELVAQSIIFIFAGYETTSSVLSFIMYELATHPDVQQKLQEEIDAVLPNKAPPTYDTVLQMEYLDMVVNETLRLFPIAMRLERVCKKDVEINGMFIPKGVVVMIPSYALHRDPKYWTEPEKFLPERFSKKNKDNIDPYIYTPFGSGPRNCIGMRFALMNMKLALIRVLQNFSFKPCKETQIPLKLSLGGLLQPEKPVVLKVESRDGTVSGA
hERG potassium channels, sequence (Q12809 whole entry): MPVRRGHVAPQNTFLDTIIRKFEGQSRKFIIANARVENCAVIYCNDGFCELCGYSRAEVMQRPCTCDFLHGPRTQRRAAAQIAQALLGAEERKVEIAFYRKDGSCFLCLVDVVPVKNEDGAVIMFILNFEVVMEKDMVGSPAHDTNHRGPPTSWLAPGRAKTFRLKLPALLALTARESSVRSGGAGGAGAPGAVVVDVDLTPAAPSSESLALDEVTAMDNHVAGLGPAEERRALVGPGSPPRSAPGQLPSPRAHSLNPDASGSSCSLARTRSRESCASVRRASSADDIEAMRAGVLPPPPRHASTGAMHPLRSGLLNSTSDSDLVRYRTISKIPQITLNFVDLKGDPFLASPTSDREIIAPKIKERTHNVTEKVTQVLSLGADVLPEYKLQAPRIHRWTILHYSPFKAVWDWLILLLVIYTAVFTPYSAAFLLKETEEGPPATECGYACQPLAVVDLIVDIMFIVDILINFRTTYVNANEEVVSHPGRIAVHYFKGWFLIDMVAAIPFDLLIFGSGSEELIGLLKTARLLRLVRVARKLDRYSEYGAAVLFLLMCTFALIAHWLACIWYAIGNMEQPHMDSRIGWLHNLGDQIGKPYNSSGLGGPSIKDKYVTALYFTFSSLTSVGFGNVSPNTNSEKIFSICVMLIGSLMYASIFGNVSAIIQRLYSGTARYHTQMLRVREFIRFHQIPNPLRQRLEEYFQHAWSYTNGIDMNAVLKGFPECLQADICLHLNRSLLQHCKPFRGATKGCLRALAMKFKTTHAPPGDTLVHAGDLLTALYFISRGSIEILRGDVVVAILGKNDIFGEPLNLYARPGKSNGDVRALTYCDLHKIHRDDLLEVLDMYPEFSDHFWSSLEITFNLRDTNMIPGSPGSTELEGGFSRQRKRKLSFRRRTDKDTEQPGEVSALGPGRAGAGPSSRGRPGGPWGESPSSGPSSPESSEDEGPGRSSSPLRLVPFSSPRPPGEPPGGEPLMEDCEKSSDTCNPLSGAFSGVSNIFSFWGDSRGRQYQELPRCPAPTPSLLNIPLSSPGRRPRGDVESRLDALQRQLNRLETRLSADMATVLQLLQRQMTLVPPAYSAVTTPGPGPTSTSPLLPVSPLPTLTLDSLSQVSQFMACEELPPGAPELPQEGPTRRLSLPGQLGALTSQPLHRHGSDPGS
CYP2D6, sequence (P10635 whole entry): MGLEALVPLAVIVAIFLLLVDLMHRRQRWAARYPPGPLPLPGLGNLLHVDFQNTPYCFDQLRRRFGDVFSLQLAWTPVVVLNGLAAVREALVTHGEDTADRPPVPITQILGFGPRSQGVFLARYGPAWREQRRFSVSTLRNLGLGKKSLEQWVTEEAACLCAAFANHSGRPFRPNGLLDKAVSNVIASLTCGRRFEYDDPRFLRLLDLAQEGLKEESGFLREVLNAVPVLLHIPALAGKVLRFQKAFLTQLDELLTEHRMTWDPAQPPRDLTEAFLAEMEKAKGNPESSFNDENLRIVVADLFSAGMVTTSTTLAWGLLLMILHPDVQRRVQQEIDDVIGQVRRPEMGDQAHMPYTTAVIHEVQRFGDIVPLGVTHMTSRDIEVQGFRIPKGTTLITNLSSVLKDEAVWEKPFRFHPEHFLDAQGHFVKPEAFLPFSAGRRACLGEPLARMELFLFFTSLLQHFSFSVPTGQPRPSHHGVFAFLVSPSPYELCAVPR
CYP2C9, sequence (P11712 whole entry): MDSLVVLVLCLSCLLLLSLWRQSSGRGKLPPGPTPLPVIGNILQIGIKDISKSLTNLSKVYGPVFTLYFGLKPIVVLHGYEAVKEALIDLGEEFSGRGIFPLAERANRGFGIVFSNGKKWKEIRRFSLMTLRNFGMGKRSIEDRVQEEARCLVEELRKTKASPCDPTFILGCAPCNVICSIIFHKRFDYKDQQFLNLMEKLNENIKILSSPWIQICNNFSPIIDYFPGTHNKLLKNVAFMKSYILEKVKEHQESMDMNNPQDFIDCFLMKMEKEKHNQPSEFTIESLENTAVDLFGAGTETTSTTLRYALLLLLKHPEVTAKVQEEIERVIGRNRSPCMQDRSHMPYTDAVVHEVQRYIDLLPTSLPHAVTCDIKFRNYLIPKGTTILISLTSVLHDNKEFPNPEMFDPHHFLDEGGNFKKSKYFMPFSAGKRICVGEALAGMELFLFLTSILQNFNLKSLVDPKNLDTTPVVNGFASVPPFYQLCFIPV

Which results are given for c1ccc([C@]2(CCNCc3scc4c3CCC4)CCO[C@]3(CCOC3)C2)nc1 [(+)-2]?
IC50 (CYP2C19): > 50 µM; Emax [1]: 96%; IC50 (hERG potassium channels): > 40 µM; IC50 (CYP2D6; read-out: CYP 2D6 IC50): 46.4 µM; IC50 (CYP3A4): > 50 µM; IC50 (CYP2C9): > 50 µM

What does the source list for Fc1ccc([C@]2(CCNCc3cccc(Cl)c3)CCO[C@]3(CCOC3)C2)nc1 [(+)-16]?
IC50 (CYP2C19): 33.7 µM; EC50 [1]: 0.0005 µM; Emax [1]: 91.7%; IC50 (CYP2D6; read-out: CYP 2D6 IC50): 12.7 µM; IC50 (CYP3A4): 40.6 µM; IC50 (CYP2C9): > 50 µM

For Cc1cccc(CNCC[C@@]2(c3ccc(F)cn3)CCO[C@]3(CCOC3)C2)c1 [Hydrochloride Salt of (+)-22], which IC50 (CYP2C19) is on record?
Its IC50 is > 50 µM.

And the Emax [1]?
Its Emax is 93.3%.

And the IC50 (hERG potassium channels)?
Its IC50 is 18.8 µM.

And the IC50 (CYP2D6)?
The IC50 was 19.3 µM.

What about the IC50 (CYP3A4) of the same molecule?
The IC50 was > 50 µM.

What about the IC50 (CYP2C9) of the same molecule?
The IC50 was > 50 µM.

Which IC50 (CYP2C19) does the source give for Fc1ccc([C@]2(CCNCc3cccc(F)c3)CCO[C@]3(CCOC3)C2)nc1 [Hydrochloride Salt of (+)-23] here?
Its IC50 is > 50 µM.

And the EC50 [1]?
The EC50 was 0.001 µM.

What about the Emax [1] of the same molecule?
Its Emax is 84.5%.

What about the IC50 (CYP2D6; read-out: CYP 2D6 IC50) of the same molecule?
Its IC50 is 17.8 µM.

And the IC50 (CYP3A4)?
Its IC50 is > 50 µM.

What about the IC50 (CYP2C9) of the same molecule?
Its IC50 is > 50 µM.

COc1ccsc1CNCC[C@@]1(c2ccccn2)CCOC2(CCCC2)C1 [compound 1, Oliceridine, reference compound] was tested. Which IC50 (CYP2C19) did it give?
Its IC50 is > 50 µM.

And the Emax [1]?
Its Emax is 82.7%.

And the IC50 (hERG potassium channels)?
Its IC50 is 5.5 µM.

And the IC50 (CYP2D6)?
The IC50 was 4.6 µM.

What about the IC50 (CYP2C9) of the same molecule?
Its IC50 is > 50 µM.
